According to patent publication US12162869B2, “Type II crystalline topramezone sodium salt hydrate, preparation method therefor and use thereof” (Rotam Agrochem International Company Limited, priority 2022, dated 2024):

Tests used:
[1] = aqueous preparation; reported in US 2010075853 A; cited from earlier work
[2] = Heat storage experiment of the preparation product; assay type: physicochemical
Experimental: In the preparation of solid preparations containing topramezone, the crystalline form I of the topramezone sodium salt can be better granulated compared with the anhydrous substance of the topramezone sodium salt. […] However, the preparation of type I topramezone sodium salt hydrate requires standing in water or a water-containing mixed solvent at −10° C.-15° C. for 10-48 h to complete the crystallization.

[3] = Product performance comparison: storage of preparation samples at 54° C. for 2 weeks; assay type: physicochemical; settings: stored at 54° C. for 2 weeks; characters before and after storage compared
Experimental: The preparation samples 1, 2, 3, 4, 5, 6, 7, 8, 9, 10, 11 and 12 prepared in Application examples 1-4 are stored at 54° C. for 2 weeks, respectively. The character changes of each sample before and after storage are compared.

Cc1c(C(=O)c2cnn(C)c2[O-])ccc(S(C)(=O)=O)c1C1=NOCC1.[Na+] [topramezone sodium salt]
Activity compared with topramezone acid [1]: equivalent to or even higher than that of topramezone acid

Cc1c(C(=O)c2cnn(C)c2[O-])ccc(S(C)(=O)=O)c1C1=NOCC1.Cc1c(C(=O)c2cnn(C)c2[O-])ccc(S(C)(=O)=O)c1C1=NOCC1.O.O.O.O.O.[Na+].[Na+] [type I topramezone sodium salt hydrate, 2.5 water topramezone sodium salt hydrate]
Stability of the preparation in heat storage, compared with the preparation based on the anhydrous substance [2]: more stable

type II crystalline topramezone sodium salt hydrate
Character changes [3]: stable after storage
